Source: paper PMC7917437 (Journal of Medicinal Chemistry, 2021)

Experiments:
[1] = Phase 1a single ascending dose study in healthy volunteers
LPS-induced mouse model = LPS-induced mouse model ref 38; cited from earlier work
CYP2B6 = experiment: CYP induction, mRNA by qRT-PCR in cultured human hepatocytes; assay type: in vitro ADME; settings: up to 30 μM, i.e., < 2-fold change and/or <20% of the positive control
[2] = test system: chronic constriction injury model of neuropathy; experiment: Chronic constriction injury model of neuropathy, von Frey assay; assay type: in vivo, male SD rats; settings: AUC over 6 h post dose
clinical = settings: both, human, plasma, oral
[3] = test system: mouse, rat, monkey, and human hepatocyte incubations; experiment: In vitro metabolism in hepatocyte incubations; assay type: in vitro ADME; settings: HPLC and mass spectrometry
laminitis = settings: cited from earlier work

CC[C@H](C)C(=O)N1CCC(NC(=O)Nc2ccc(OC(F)(F)F)c(F)c2)CC1 [EC5026, (S)-1-(3-Fluoro-4-(trifluoromethoxy)phenyl)-3-(1-(2-methylbutanoyl)piperidin-4-yl)urea]
effective total AUC for a daily dosing regimen ([1]; calculated): 6 ng·h/mL | absorption ([1]; human, single oral doses): well absorbed with linear dose-proportionality | neuroinflammation in the CNS (LPS-induced mouse model): prevent neuroinflammation | effect on CYP2B6 mRNA levels (CYP2B6): little or no effect | efficacy compared with pregabalin ([2]; at 10–20 fold lower doses, vs pregabalin (30 mg/kg) p = 0.039): superior to pregabalin | pain measured with a von Frey assay (mechanical withdrawal thresholds) ([2]; male SD rats, oral gavage, 3 mg/kg, vs PEG 300 p ≤ 0.001): blocked pain | half-life (clinical): 42 to 59 h | putative metabolites detected [3]: seven

O=C(Nc1ccc(OC(F)(F)F)cc1)N[C@H]1CC[C@H](Oc2ccc(C(=O)O)cc2)CC1 [t-TUCB, trans-4-{4-[3-(4-trifluoromethoxy-phenyl)-ureido]-cyclohexyloxy}-benzoic acid]
outcome in a laminitic horse scheduled for euthanasia (laminitis; after 5 days of treatment ref 49): complete recovery with no recurrent laminitis | adverse effects from clinical exams and blood work (laminitis; horse, five-day treatment, once daily 0.1 mg/kg ref 49): no signs of adverse effects | outcome in seven other laminitic horses (laminitis; when all other treatments failed ref 50): showed improvement in disease
